One data set deals with fused MjGMPS. The data set is described as follows: continuous absorbance at […] nm, GMP formation. As to conditions: ATPPase site, pH 7.0, 70 °C. It counts as biochemical, Methanocaldococcus jannaschii.
Substrate in the data set “purified protein”: O=c1[nH]c(=O)c2ncn([C@@H]3O[C@H](COP(=O)(O)O)[C@@H](O)[C@H]3O)c2[nH]1
The data set is described as follows: purified protein. It counts as biochemical, Methanocaldococcus jannaschii. As to conditions: pH 7.0, 70 °C.

The text below walks through data of article doi:10.1101/2022.02.27.481963v1 (biorxiv, 2022).

One may read the Km as the substrate concentration at which the rate is half of its maximum. Take `Nc1ncnc2c1ncn2[C@@H]1O[C@H](COP(=O)(O)OP(=O)(O)OP(=O)(O)O)[C@@H](O)[C@H]1O` [ATP.Mg^2+]: in the data set on fused MjGMPS (Mg2+ complex, saturating XMP), the Michaelis constant (Km) stood at 503 ± 6 µM.
In the case of `O=c1[nH]c(=O)c2ncn([C@@H]3O[C@H](COP(=O)(O)O)[C@@H](O)[C@H]3O)c2[nH]1` [XMP], the Michaelis-Menten constant (Km) in the data set on fused MjGMPS (saturating ATP.Mg2+) stood at 44 ± 1 µM.

B1: MjATPPase (Methanocaldococcus jannaschii DSM 2661) (protein)
chain: MFDPKKFIDEAVEEIKQQISDRKAIIALSGGVDSSVAAVLTHKAIGDKLTAVFVDTGLMRKGEREEVEKTFRDKLGLNLIVVDAKDRFLNALKGVTDPEEKRKIIGKLFIDVFEEIAEDIKAEVLVQGTIAPDWIETQGKIKSHHNVALPHGMVLEVVEPLRELYKDEVRLLAKELGLPDSIVYRQPFPGPGLAVRVLGEVTEEKLNICREANAIVEEEVKKANLDKDLWQYFAVVLDCKATGVKGDEREYNWIVALRMVKSLDAMTAHVPEIPFDLLKRISKRITSEIPNVARVVFDITDKPPATIEFE
Turning to B1, the Km in the data set “purified protein” (NH4Cl dependent, saturating ATP.Mg2+ and NH4Cl) is recorded as 30 ± 2 µM.

B2: MjGMPS (MjATPPase + MjGATase), ATPPase site (Methanocaldococcus jannaschii DSM 2661) (protein)
chain: B1 chain
Consider B2, for which the Michaelis constant (Km) in “purified protein” (Gln dependent, saturating ATP.Mg2+ and Gln) is on record as 61 ± 3 µM.
